# Test results from ChEMBL document CHEMBL1130031, “Binding affinities for sulfonamide inhibitors with human thrombin using Monte Carlo simulations with a linear response method” (J Med Chem, 1997).
# Biological target: Prothrombin (Homo sapiens, UniProt P00734)
# Experiment: Inhibition constant against human thrombin
row,SMILES,Ki
1,CC1CNc2c(cccc2S(=O)(=O)N[C@@H](CCCNC(N)N)C(=O)N2CC[C@H](C)C[C@@H]2C(=O)O)C1 (stereo in doubt; 1b),1900 nM
2,CC1CNc2c(cccc2S(=O)(=O)N[C@@H](CCCNC(N)N)C(=O)N2CC[C@H](C)C[C@@H]2C(=O)O)C1 (stereo in doubt; 1g),240 nM
3,CC1CNc2c(cccc2S(=O)(=O)N[C@@H](CCCNC(N)N)C(=O)N2CC[C@@H](C)C[C@@H]2C(=O)O)C1 (stereo partly specified),19 nM
4,CC1CNc2c(cccc2S(=O)(=O)N[C@@H](CCCNC(N)N)C(=O)N2CCCCC2)C1 (stereo partly specified),130 nM
5,CC1CCN(C(=O)[C@H](CCCNC(N)N)NS(=O)(=O)c2cccc3c2NCC(C)C3)CC1 (stereo partly specified),30 nM
6,CC1CNc2c(cccc2S(=O)(=O)N[C@@H](CCCNC(N)N)C(=O)N2CC[C@H](C)C[C@@H]2C(=O)O)C1 (stereo in doubt; 1c),280000 nM
